The source made the active and inactive calls. The rule behind the calls is not given here.
System: CCRIS mutagenicity, Ames/micronucleus/aberration tests
Assay: CCRIS mutagenicity studies
[1] = Test System: AMES SALMONELLA TYPHIMURIUM, Strain/Indicator: TA98, Metabolic Activation: NONE, Method: PREINCUBATION
[2] = Test System: AMES SALMONELLA TYPHIMURIUM, Strain/Indicator: TA100, Metabolic Activation: NONE, Method: PREINCUBATION
[3] = Test System: AMES SALMONELLA TYPHIMURIUM, Strain/Indicator: TA98, Metabolic Activation: NONE, Method: STANDARD PLATE
[4] = Test System: AMES SALMONELLA TYPHIMURIUM, Strain/Indicator: TA1535, Metabolic Activation: NONE, Method: STANDARD PLATE

`O=C1C=CC(=O)C(Cl)=C1` was tested, and the mutagenic call [1] was “inactive; negative”, the mutagenic call (Test System: AMES SALMONELLA TYPHIMURIUM, Strain/Indicator: TA98, Metabolic Activation: RAT, LIVER, S-9, PHENOBARBITAL AND 5,6-BENZOFLAVONE, Method: PREINCUBATION) was “inactive; negative” and the mutagenic call [2] was “inactive; negative”. The mutagenic call (Test System: AMES SALMONELLA TYPHIMURIUM, Strain/Indicator: TA100, Metabolic Activation: RAT, LIVER, S-9, PHENOBARBITAL AND 5,6-BENZOFLAVONE, Method: PREINCUBATION) was “inactive; negative”, the mutagenic call (Test System: AMES SALMONELLA TYPHIMURIUM, Strain/Indicator: TA102, Metabolic Activation: NONE, Method: PREINCUBATION) was “inactive; negative” and the mutagenic call (Test System: AMES SALMONELLA TYPHIMURIUM, Strain/Indicator: TA102, Metabolic Activation: RAT, LIVER, S-9, PHENOBARBITAL AND 5,6-BENZOFLAVONE, Method: PREINCUBATION) was “inactive; negative”. For the same compound, the mutagenic call (Test System: AMES SALMONELLA TYPHIMURIUM, Strain/Indicator: TA104, Metabolic Activation: NONE, Method: PREINCUBATION) was “inactive; negative”, the mutagenic call (Test System: AMES SALMONELLA TYPHIMURIUM, Strain/Indicator: TA104, Metabolic Activation: RAT, LIVER, S-9, PHENOBARBITAL AND 5,6-BENZOFLAVONE, Method: PREINCUBATION) was “inactive; negative” and the mutagenic call (Test System: AMES SALMONELLA TYPHIMURIUM, Strain/Indicator: TA2637, Metabolic Activation: NONE, Method: PREINCUBATION) was “inactive; negative”. For the same compound, the mutagenic call (Test System: AMES SALMONELLA TYPHIMURIUM, Strain/Indicator: TA2637, Metabolic Activation: RAT, LIVER, S-9, PHENOBARBITAL AND 5,6-BENZOFLAVONE, Method: PREINCUBATION) was “inactive; negative”.
`CC(=O)Oc1ccc2c(c1)C1(C)OOC1(C)O2` (configuration not stated) was tested, and the mutagenic call [2] was “active; positive”.
In the case of `O=C1c2ccccc2C(=O)c2c1cc(O)c(O)c2O`, the mutagenic call [3] is reported as “active; positive”, the mutagenic call (Test System: AMES SALMONELLA TYPHIMURIUM, Strain/Indicator: TA98, Metabolic Activation: RAT, LIVER, S-9, AROCLOR 1254, Method: STANDARD PLATE) is reported as “active; positive” and the mutagenic call [4] is reported as “inactive; negative”. The mutagenic call (Test System: AMES SALMONELLA TYPHIMURIUM, Strain/Indicator: TA1535, Metabolic Activation: RAT, LIVER, S-9, AROCLOR 1254, Method: STANDARD PLATE) was “inactive; negative”, the mutagenic call (Test System: AMES SALMONELLA TYPHIMURIUM, Strain/Indicator: TA1537, Metabolic Activation: NONE, Method: STANDARD PLATE) was “active; positive” and the mutagenic call (Test System: AMES SALMONELLA TYPHIMURIUM, Strain/Indicator: TA1537, Metabolic Activation: RAT, LIVER, S-9, AROCLOR 1254, Method: STANDARD PLATE) was “active; positive”. The mutagenic call (Test System: AMES SALMONELLA TYPHIMURIUM, Strain/Indicator: TA1538, Metabolic Activation: NONE, Method: STANDARD PLATE) was “active; positive”, the mutagenic call (Test System: AMES SALMONELLA TYPHIMURIUM, Strain/Indicator: TA1538, Metabolic Activation: RAT, LIVER, S-9, AROCLOR 1254, Method: STANDARD PLATE) was “active; positive” and the mutagenic call (Test System: AMES SALMONELLA TYPHIMURIUM, Strain/Indicator: TA1978, Metabolic Activation: NONE, Method: STANDARD PLATE) was “inactive; negative”. For the same compound, the mutagenic call (Test System: AMES SALMONELLA TYPHIMURIUM, Strain/Indicator: TA1978, Metabolic Activation: RAT, LIVER, S-9, AROCLOR 1254, Method: STANDARD PLATE) was “inactive; negative”.
With `CO[C@H](C(=O)[C@@H](O)[C@@H](C)O)[C@@H]1Cc2cc3cc(O[C@H]4C[C@@H](O[C@H]5C[C@@H](O)[C@H](O)[C@@H](C)O5)[C@H](O)[C@@H](C)O4)c(C)c(O)c3c(O)c2C(=O)[C@H]1O[C@H]1C[C@@H](O[C@H]2C[C@@H](O[C@H]3C[C@](C)(O)[C@H](O)[C@@H](C)O3)[C@@H](O)[C@@H](C)O2)[C@H](O)[C@@H](C)O1` the mutagenic call (Test System: CHINESE HAMSTER OVARY, Strain/Indicator: CHO (HGPRT)/6-THIOGUANINE, Metabolic Activation: NONE, Method: PREINCUBATION) was “active; positive”.
In the case of `Cc1ccc(C)c(NO)c1`, the mutagenic call [2] is reported as “active; positive” and the mutagenic call (Test System: AMES SALMONELLA TYPHIMURIUM, Strain/Indicator: TA100, Metabolic Activation: RAT, LIVER, S-9, PCB, Method: PREINCUBATION) is reported as “active; positive”.
In the case of `Clc1cccc(Cl)c1Cl`, the mutagenic call (Test System: AMES SALMONELLA TYPHIMURIUM, Strain/Indicator: TA98, Metabolic Activation: HAMSTER, LIVER, S-9, AROCLOR 1254, Method: PREINCUBATION) is reported as “inactive; negative”, the mutagenic call [1] is reported as “inactive; negative” and the mutagenic call (Test System: AMES SALMONELLA TYPHIMURIUM, Strain/Indicator: TA98, Metabolic Activation: RAT, LIVER, S-9, AROCLOR 1254, Method: PREINCUBATION) is reported as “inactive; negative”. The mutagenic call (Test System: AMES SALMONELLA TYPHIMURIUM, Strain/Indicator: TA100, Metabolic Activation: HAMSTER, LIVER, S-9, AROCLOR 1254, Method: PREINCUBATION) was “inactive; negative”, the mutagenic call [2] was “inactive; negative” and the mutagenic call (Test System: AMES SALMONELLA TYPHIMURIUM, Strain/Indicator: TA100, Metabolic Activation: RAT, LIVER, S-9, AROCLOR 1254, Method: PREINCUBATION) was “inactive; negative”. For the same compound, the mutagenic call (Test System: AMES SALMONELLA TYPHIMURIUM, Strain/Indicator: TA1535, Metabolic Activation: HAMSTER, LIVER, S-9, AROCLOR 1254, Method: PREINCUBATION) was “inactive; negative”, the mutagenic call (Test System: AMES SALMONELLA TYPHIMURIUM, Strain/Indicator: TA1535, Metabolic Activation: NONE, Method: PREINCUBATION) was “inactive; negative” and the mutagenic call (Test System: AMES SALMONELLA TYPHIMURIUM, Strain/Indicator: TA1535, Metabolic Activation: RAT, LIVER, S-9, AROCLOR 1254, Method: PREINCUBATION) was “inactive; negative”. For the same compound, the mutagenic call (Test System: AMES SALMONELLA TYPHIMURIUM, Strain/Indicator: TA1537, Metabolic Activation: HAMSTER, LIVER, S-9, AROCLOR 1254, Method: PREINCUBATION) was “inactive; negative”, the mutagenic call (Test System: AMES SALMONELLA TYPHIMURIUM, Strain/Indicator: TA1537, Metabolic Activation: NONE, Method: PREINCUBATION) was “inactive; negative” and the mutagenic call (Test System: AMES SALMONELLA TYPHIMURIUM, Strain/Indicator: TA1537, Metabolic Activation: RAT, LIVER, S-9, AROCLOR 1254, Method: PREINCUBATION) was “inactive; negative”.
In the case of `CCN(CC)c1ccc(/C=C/C2=[N+](C)c3ccccc3C2(C)C)cc1`, the mutagenic call (Test System: Ames Salmonella typhimurium, Strain/Indicator: TA98, Metabolic Activation: None, Method: Preincubation) is reported as “inactive; negative”, the mutagenic call (Test System: Ames Salmonella typhimurium, Strain/Indicator: TA98, Metabolic Activation: Rat, Liver, S-9, Aroclor 1254, Method: Preincubation) is reported as “inactive; negative” and the mutagenic call (Test System: Ames Salmonella typhimurium, Strain/Indicator: TA100, Metabolic Activation: None, Method: Preincubation) is reported as “inactive; negative”. For the same compound, the mutagenic call (Test System: Ames Salmonella typhimurium, Strain/Indicator: TA100, Metabolic Activation: Rat, Liver, S-9, Aroclor 1254, Method: Preincubation) was “inactive; negative”, the mutagenic call (Test System: Ames Salmonella typhimurium, Strain/Indicator: TA102, Metabolic Activation: None, Method: Preincubation) was “inactive; negative” and the mutagenic call (Test System: Ames Salmonella typhimurium, Strain/Indicator: TA102, Metabolic Activation: Rat, Liver, S-9, Aroclor 1254, Method: Preincubation) was “inactive; negative”. For the same compound, the mutagenic call (Test System: Ames Salmonella typhimurium, Strain/Indicator: TA1535, Metabolic Activation: None, Method: Preincubation) was “inactive; negative” and the mutagenic call (Test System: Ames Salmonella typhimurium, Strain/Indicator: TA1535, Metabolic Activation: Rat, Liver, S-9, Aroclor 1254, Method: Preincubation) was “inactive; negative”.
With `[Ag][I]` the mutagenic call (Test System: AMES SALMONELLA TYPHIMURIUM, Strain/Indicator: TA97, Metabolic Activation: NONE, Method: STANDARD PLATE) was “inactive; negative”, the mutagenic call (Test System: AMES SALMONELLA TYPHIMURIUM, Strain/Indicator: TA97, Metabolic Activation: RAT LIVER S-9, AROCLOR 1254, Method: STANDARD PLATE) was “active; positive” and the mutagenic call [3] was “inactive; negative”. The mutagenic call (Test System: AMES SALMONELLA TYPHIMURIUM, Strain/Indicator: TA98, Metabolic Activation: RAT LIVER S-9, AROCLOR 1254, Method: STANDARD PLATE) was “inactive; negative”, the mutagenic call (Test System: AMES SALMONELLA TYPHIMURIUM, Strain/Indicator: TA102, Metabolic Activation: NONE, Method: STANDARD PLATE) was “active; positive” and the mutagenic call (Test System: AMES SALMONELLA TYPHIMURIUM, Strain/Indicator: TA102, Metabolic Activation: RAT LIVER S-9, AROCLOR 1254, Method: STANDARD PLATE) was “inactive; negative”. The mutagenic call [4] was “inactive; negative” and the mutagenic call (Test System: AMES SALMONELLA TYPHIMURIUM, Strain/Indicator: TA1535, Metabolic Activation: RAT LIVER S-9, AROCLOR 1254, Method: STANDARD PLATE) was “inactive; negative”.

— PubChem BioAssay AID1259407 (Chemical Carcinogenesis Research Information System (CCRIS), 2018)
